57 compounds from patent US20260158017A1, “KIF18A INHIBITOR” (WIGEN BIOMEDICINE TECHNOLOGY (SHANGHAI) CO., LTD., priority 2021, published 2026) can be followed below.

For orientation: IC50 means the concentration that gives 50% inhibition.

Where only a bound is given, the exact number is not on record here.

T1 sequence (Q8NI77 1-467): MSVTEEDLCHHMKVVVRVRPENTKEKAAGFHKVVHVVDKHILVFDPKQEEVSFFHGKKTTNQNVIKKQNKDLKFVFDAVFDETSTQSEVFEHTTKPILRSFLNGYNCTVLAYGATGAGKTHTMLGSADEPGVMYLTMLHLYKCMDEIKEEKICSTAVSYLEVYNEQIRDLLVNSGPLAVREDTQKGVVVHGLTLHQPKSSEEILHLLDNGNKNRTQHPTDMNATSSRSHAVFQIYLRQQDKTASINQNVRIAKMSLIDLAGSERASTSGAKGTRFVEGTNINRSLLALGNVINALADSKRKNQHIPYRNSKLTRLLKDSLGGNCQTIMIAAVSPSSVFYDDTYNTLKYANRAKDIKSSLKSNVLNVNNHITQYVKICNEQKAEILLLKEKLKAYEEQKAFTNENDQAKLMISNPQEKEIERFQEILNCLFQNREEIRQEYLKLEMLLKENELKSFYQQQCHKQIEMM
T1 sequence (P02550 whole entry partner): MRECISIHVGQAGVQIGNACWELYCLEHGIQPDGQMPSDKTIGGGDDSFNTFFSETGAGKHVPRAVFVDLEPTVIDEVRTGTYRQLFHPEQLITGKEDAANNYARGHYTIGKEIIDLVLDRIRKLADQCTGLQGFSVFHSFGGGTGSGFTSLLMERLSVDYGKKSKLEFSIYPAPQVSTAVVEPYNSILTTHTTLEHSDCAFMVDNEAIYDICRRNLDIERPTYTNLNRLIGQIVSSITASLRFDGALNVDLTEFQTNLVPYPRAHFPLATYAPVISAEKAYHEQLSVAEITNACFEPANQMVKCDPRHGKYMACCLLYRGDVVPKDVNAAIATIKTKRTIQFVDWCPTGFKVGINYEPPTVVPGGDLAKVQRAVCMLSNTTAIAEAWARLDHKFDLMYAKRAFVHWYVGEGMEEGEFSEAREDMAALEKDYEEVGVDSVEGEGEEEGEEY
T1 sequence (P02554 whole entry partner): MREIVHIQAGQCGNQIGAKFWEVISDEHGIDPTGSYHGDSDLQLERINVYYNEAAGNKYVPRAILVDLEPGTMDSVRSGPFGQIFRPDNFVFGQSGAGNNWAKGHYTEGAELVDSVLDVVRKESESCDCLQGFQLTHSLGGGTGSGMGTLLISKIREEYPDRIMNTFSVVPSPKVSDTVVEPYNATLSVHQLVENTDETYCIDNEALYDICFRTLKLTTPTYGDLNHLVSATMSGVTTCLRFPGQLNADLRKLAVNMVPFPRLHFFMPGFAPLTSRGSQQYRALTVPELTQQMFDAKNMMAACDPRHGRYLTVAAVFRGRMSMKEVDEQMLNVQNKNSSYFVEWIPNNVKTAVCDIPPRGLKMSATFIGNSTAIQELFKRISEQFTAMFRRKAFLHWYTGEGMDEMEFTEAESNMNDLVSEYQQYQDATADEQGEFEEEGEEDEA

The assay addresses T1, Recombinant human KIF18A (1-467His-tagged) protein (Homo sapiens, UniProt Q8NI77).
T1 construct: Recombinant human KIF18A (1-467His-tagged) protein; His; made in house
The experiment in a line: KIF18A enzyme assay (microtubule-stimulated ATPase activity, ADP-Glo). Particulars: 30 nM KIF18A, 75 μM ATP, 30 μg/mL pig microtubules; read-out: Inhibitory activity against KIF18A IC50. The assay is classed as biochemical. In a few lines:
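Buffer 15 mM Tris pH 7.5, 10 mM MgCl2, 0.01% Pluronic F-68, 1 μM paclitaxel, 30 μg/mL pig microtubules; reactions at room temperature. IC50 from inhibition relative to DMSO.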
In general terms: ADP-Glo first removes unused ATP, then detects ADP through luciferase.
`C[C@@H](CO)S(=O)(=O)Nc1ccc(C(=O)Nc2ccc(OCF)c(N3CCC(F)(F)CC3)c2)c(N2CCC3(CC2)CC3)c1` [Compound 413]: the IC50 was at most 0.1 µM.

As to `CSc1ccc(NC(=O)c2cnc(NS(=O)(=O)[C@@H](C)CO)cc2N2CCC3(CC2)CC3)cc1N1CCC(F)(F)CC1` [Compound 621], the IC50 was at most 0.1 µM. As for `CC1(F)CCN(c2nc(NC(=O)c3ccc(NS(=O)(=O)CCO)cc3N3CCC4(CC3)CC4)ccc2OCF)C1` (stereo not drawn) [Compound 424], the IC50 was at most 0.1 µM. Then `CC(C)(CO)Nc1nc(C(=O)Nc2cnc(S(=O)(=O)NCCO)cc2N2CCC3(CC2)CC3)ccc1[N+](=O)[O-]` [Compound 251], with 0.1 to 0.5 µM; and `O=C(Nc1ccc([N+](=O)[O-])c(N2CCC(F)(F)CC2)c1)c1cnc(S(=O)(=O)NCCO)cc1N1CCC2(CC1)CC2` [Compound 113], with at most 0.1 µM; and `O=C(Nc1cnc(S(=O)(=O)NCCO)cc1N1CCC2(CC1)CC2)c1ccc([N+](=O)[O-])c(OCCC(F)(F)F)c1` [Compound 213], with 0.1 to 0.5 µM. Then `O=C(Nc1ccc([N+](=O)[O-])c(N2CCC3(CC3)C2)n1)c1ccc(S(=O)(=O)NCCO)cc1N1CCC2(CC1)CC2` [Compound 86], with at most 0.1 µM; and `COc1ccc(C(=O)Nc2ccc(NS(=O)(=O)CCO)cc2N2CCC3(CC2)CC3)nc1N1CCC(C)(F)C1` (stereo not drawn) [Compound 328], with at most 0.1 µM.

For `C[C@@H]1CN(c2nc(NC(=O)c3cnc(S(=O)(=O)NCCO)cc3N3CCC4(CC3)CC4)ccc2OCF)CCO1` [Compound 498], the IC50 was at most 0.1 µM. The value for `O=C(Nc1ccc(S(=O)(=O)NCCO)cc1N1CCC2(CC1)CC2)c1ccc([N+](=O)[O-])c(N2CCC(F)CC2)n1` [Compound 185] was 0.1 to 0.5 µM; that for `O=C(Nc1ccc([N+](=O)[O-])c(OCCC(F)(F)F)c1)c1ccc(NS(=O)(=O)CCO)cc1N1CCC2(CC1)CC2` [Compound 5] was at most 0.1 µM; that for `COc1ccc(NC(=O)c2cnc(NS(=O)(=O)CCO)cc2N2CCC3(CC2)CC3)nc1N1CCO[C@@H](C)C1` [Compound 291] was at most 0.1 µM. The value for `COc1ccc(NC(=O)c2cnc(NS(=O)(=O)CCO)cc2N2CCC3(CC2)CC3)nc1N1CCC2(CC2)C1` [Compound 294] was at most 0.1 µM. Turning to `C[C@H](CO)NS(=O)(=O)c1ccc(C(=O)Nc2ccc(OCF)c(N3CCO[C@H](C)C3)c2)c(N2CCC3(CC2)CC3)c1` [Compound 416], the IC50 was at most 0.1 µM. In the case of `O=C(Nc1ccc([N+](=O)[O-])c(N2CC(F)(F)C2)n1)c1ccc(NS(=O)(=O)CCO)cc1N1CCC2(CC1)CC2` [Compound 68], the IC50 is at most 0.1 µM. Consider `CSc1ccc(NC(=O)c2ccc(NS(=O)(=O)CCO)cc2N2CCC3(CC2)CC3)cc1N1CC2CC2C1` (stereo not drawn) [Compound 586], for which the IC50 is at most 0.1 µM. Then `COc1ccc(NC(=O)c2ccc(S(=O)(=O)N[C@H](C)CO)cc2N2CCC3(CC2)CC3)nc1N1CCO[C@H](C)C1` [Compound 288], with at most 0.1 µM; and `COc1ccc(NC(=O)c2cnc(NS(=O)(=O)CCO)cc2N2CCC3(CC2)CC3)nc1OCCC(F)(F)F` [Compound 293], with at most 0.1 µM. Then `CC(C)(CO)Nc1nc(C(=O)Nc2ccc(NS(=O)(=O)CCO)cc2N2CCC3(CC2)CC3)ccc1OCF` [Compound 555], with at most 0.1 µM. Consider `O=C(Nc1ccc(OCF)c(N2CC3CC3C2)n1)c1cnc(S(=O)(=O)NCCO)cc1N1CCC2(CC1)CC2` (stereo not drawn) [Compound 506], for which the IC50 was at most 0.1 µM.

In the case of `C[C@H]1CN(c2nc(NC(=O)c3ccc(NS(=O)(=O)CCO)cc3N3CCC4(CC3)CC4)ccc2OCF)CCO1` [Compound 419], the IC50 is at most 0.1 µM. On to `O=C(Nc1ccc(OCF)c(N2CCC3(CC3)C2)c1)c1ccc(S(=O)(=O)NCCO)cc1N1CCC2(CC1)CC2` [Compound 406], for which the IC50 was at most 0.1 µM. Then `CC(C)(CO)Nc1cc(C(=O)Nc2cnc(NS(=O)(=O)CCO)cc2N2CCC3(CC2)CC3)ccc1[N+](=O)[O-]` [Compound 203], with at most 0.1 µM; and `C[C@H]1CN(c2cc(C(=O)Nc3cnc(NS(=O)(=O)CCO)cc3N3CCC4(CC3)CC4)ccc2[N+](=O)[O-])CCO1` [Compound 195], with at most 0.1 µM; and `CC1(F)CCN(c2cc(NC(=O)c3cnc(S(=O)(=O)NCCO)cc3N3CCC4(CC3)CC4)ccc2[N+](=O)[O-])C1` (stereo not drawn) [Compound 120], with at most 0.1 µM. As to `CC(C)(CO)Nc1cc(C(=O)Nc2ccc(NS(=O)(=O)CCO)cc2N2CCC3(CC2)CC3)ccc1[N+](=O)[O-]` [Compound 43], the IC50 was at most 0.1 µM.

Consider `C[C@@H]1CN(c2nc(C(=O)Nc3cnc(NS(=O)(=O)[C@@H](C)CO)cc3N3CCC4(CC3)CC4)ccc2[N+](=O)[O-])CCO1` [Compound 239], for which the IC50 is at most 0.1 µM. Turning to `CSc1ccc(NC(=O)c2cnc(NS(=O)(=O)CCO)cc2N2CCC3(CC2)CC3)cc1N1CCC(F)(F)CC1` [Compound 609], the concentration for half-maximal inhibition (IC50) was at most 0.1 µM. Consider `COc1ccc(NC(=O)c2cnc(NS(=O)(=O)CCO)cc2N2CCC3(CC2)CC3)nc1N1CCC(F)CC1` [Compound 297], for which the IC50 is at most 0.1 µM. Then `C[C@H]1CN(c2nc(C(=O)Nc3cnc(NS(=O)(=O)CCO)cc3N3CCC4(CC3)CC4)ccc2[N+](=O)[O-])CCO1` [Compound 227], with at most 0.1 µM; and `O=C(Nc1ccc(OCF)c(N2CC(F)(F)C2)c1)c1ccc(NS(=O)(=O)CCO)cc1N1CCC2(CC1)CC2` [Compound 388], with at most 0.1 µM; and `C[C@@H]1CN(c2nc(NC(=O)c3ccc(NS(=O)(=O)[C@@H](C)CO)cc3N3CCC4(CC3)CC4)ccc2[N+](=O)[O-])CCO1` [Compound 79], with at most 0.1 µM. The value for `O=C(Nc1ccc(NS(=O)(=O)CCO)cc1N1CCC2(CC1)CC2)c1ccc([N+](=O)[O-])c(OC2CCC2)n1` [Compound 167] was at most 0.1 µM; that for `O=C(Nc1ccc(OCF)c(N2CC(F)(F)C2)n1)c1ccc(S(=O)(=O)NCCO)cc1N1CCC2(CC1)CC2` [Compound 436] was at most 0.1 µM; that for `COc1ccc(NC(=O)c2ccc(NS(=O)(=O)CCO)cc2N2CCC3(CC2)CC3)nc1N1CCOCC1` [Compound 268] was at most 0.1 µM.

Take `CC1(F)CCN(c2cc(NC(=O)c3cnc(NS(=O)(=O)CCO)cc3N3CCC4(CC3)CC4)ccc2[N+](=O)[O-])C1` (stereo not drawn) [Compound 104]: the IC50 is at most 0.1 µM.

Take `O=C(Nc1ccc(S(=O)(=O)NCCO)cc1N1CCC2(CC1)CC2)c1ccc([N+](=O)[O-])c(N2CCC(F)(F)CC2)c1` [Compound 49]: the IC50 was in the range of 0.1 to 0.5 µM. Then `C[C@@H](CO)NS(=O)(=O)c1cc(N2CCC3(CC2)CC3)c(C(=O)Nc2ccc([N+](=O)[O-])c(N3CCC(F)(F)CC3)n2)cn1` [Compound 157], with at most 0.1 µM. The value for `COc1ccc(NC(=O)c2cnc(NS(=O)(=O)CCO)cc2N2CCC3(CC2)CC3)nc1N1CC(F)(F)C1` [Compound 292] was at most 0.1 µM. Regarding `COc1ccc(C(=O)Nc2ccc(S(=O)(=O)N[C@H](C)CO)cc2N2CCC3(CC2)CC3)nc1N1CCO[C@H](C)C1` [Compound 352], the IC50 is at most 0.1 µM. Then `C[C@H](CO)NS(=O)(=O)c1cc(N2CCC3(CC2)CC3)c(NC(=O)c2ccc([N+](=O)[O-])c(N3CCO[C@H](C)C3)c2)cn1` [Compound 224], with 0.1 to 0.5 µM. In the case of `O=C(Nc1ccc([N+](=O)[O-])c(N2CC3CC3C2)c1)c1cnc(NS(=O)(=O)CCO)cc1N1CCC2(CC1)CC2` (stereo not drawn) [Compound 106], the IC50 was at most 0.1 µM. For `COc1ccc(C(=O)Nc2cnc(NS(=O)(=O)CCO)cc2N2CCC3(CC2)CC3)nc1N1CCC2(CC2)C1` [Compound 358], the IC50 was at most 0.1 µM. Then `CSc1ccc(NC(=O)c2cnc(NS(=O)(=O)CCO)cc2N2CCC3(CC2)CC3)nc1N1CCO[C@@H](C)C1` [Compound 627], with at most 0.1 µM; and `O=C(Nc1ccc([N+](=O)[O-])c(N2CCOCC2)c1)c1cnc(S(=O)(=O)NCCO)cc1N1CCC2(CC1)CC2` [Compound 124], with at most 0.1 µM. In the case of `COc1ccc(NC(=O)c2cnc(S(=O)(=O)NCCO)cc2N2CCC3(CC2)CC3)nc1N1CC(F)(F)C1` [Compound 308], the IC50 was at most 0.1 µM. In the case of `CSc1ccc(NC(=O)c2ccc(NS(=O)(=O)[C@@H](C)CO)cc2N2CCC3(CC2)CC3)cc1N1CCO[C@H](C)C1` [Compound 591], the half-inhibitory concentration (IC50) is at most 0.1 µM. `C[C@@H]1CN(c2nc(NC(=O)c3cnc(NS(=O)(=O)CCO)cc3N3CCC4(CC3)CC4)ccc2[N+](=O)[O-])CCO1` [Compound 130]: the IC50 was at most 0.1 µM.

With `CSc1ccc(NC(=O)c2cnc(NS(=O)(=O)[C@@H](C)CO)cc2N2CCC3(CC2)CC3)nc1N1CCO[C@H](C)C1` [Compound 639], the IC50 was at most 0.1 µM. The value for `C[C@H](CO)NS(=O)(=O)c1cc(N2CCC3(CC2)CC3)c(NC(=O)c2ccc([N+](=O)[O-])c(N3CCO[C@H](C)C3)n2)cn1` [Compound 256] was 0.1 to 0.5 µM. Then `CSc1ccc(NC(=O)c2ccc(NS(=O)(=O)CCO)cc2N2CCC3(CC2)CC3)nc1N1CC2CC2C1` (stereo not drawn) [Compound 602], with at most 0.1 µM; and `O=C(Nc1ccc(S(=O)(=O)NCCO)cc1N1CCC2(CC1)CC2)c1ccc(OCF)c(OCCC(F)(F)F)n1` [Compound 565], with 0.1 to 0.5 µM. As to `CSc1ccc(NC(=O)c2ccc(NS(=O)(=O)CCO)cc2N2CCC3(CC2)CC3)nc1NC(C)(C)CO` [Compound 603], the IC50 was at most 0.1 µM. In the case of `C[C@@H]1CN(c2nc(C(=O)Nc3ccc(NS(=O)(=O)CCO)cc3N3CCC4(CC3)CC4)ccc2[N+](=O)[O-])CCO1` [Compound 162], the concentration for half-maximal inhibition (IC50) was at most 0.1 µM. Turning to `C[C@H]1CN(c2cc(NC(=O)c3cnc(S(=O)(=O)NCCO)cc3N3CCC4(CC3)CC4)ccc2[N+](=O)[O-])CCO1` [Compound 115], the IC50 was at most 0.1 µM. The value for `C[C@@H](CO)S(=O)(=O)Nc1cc(N2CCC3(CC2)CC3)c(NC(=O)c2ccc([N+](=O)[O-])c(N3CCC(F)(F)CC3)c2)cn1` [Compound 205] was at most 0.1 µM; that for `C[C@@H]1CN(c2cc(C(=O)Nc3cnc(S(=O)(=O)NCCO)cc3N3CCC4(CC3)CC4)ccc2[N+](=O)[O-])CCO1` [Compound 210] was 0.1 to 0.5 µM.
